# pEC50, pIC50: −log10 of the molar value. The source made the active and inactive calls.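 Rule for the calls: active = compounds giving half or more protection of infected cells from virus-caused growth loss, again on retest; inactive = the rest.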
# System: CEM cells HIV-1 protection, formazan growth assay
# Assay: NCI AIDS Antiviral Assay
# Conditions: for pIC50: measured here: growth of uninfected CEM cells
# In short: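 CEM (human) cells, HIV-1 infected vs uninfected, 5-point dosing, formazan growth read-out. Retest threshold 50% protection.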
Compound,pEC50,pIC50,outcome
CCOc1ccc(NC(=O)C2=C(C)NC(C)=C(C(=O)Nc3ccc(OCC)cc3)C2c2ccc([N+](=O)[O-])cc2)cc1,< 4.89,< 4.89,
OCC1OC(n2ccc3cnccc32)CC1O (stereo unspecified),,,inactive
CC1=NNB(O)c2sccc21,< 3.25,3.84,
CC(=O)OC1COC(OC2CC3(C)C4CC=C5C(C=C(O)CC5(C)C)[C@]4(C)CC[C@]3(C)C2C(C)(O)C(=O)/C=C/C(C)(C)O)C(OC(C)=O)C1O (stereo partly specified),,,inactive
C[C@@H]1CC/C=C(/[Si](C)(C)C)C[C@H](C)O1,< 2.93,< 2.93,
O=C(O)CCC1CCc2cccc3occ1c23 (stereo unspecified),,,inactive
Cc1ccc(C(=O)N2CCCCC2)cc1N=NN(C)C,< 3.58,3.62,
CC(C)c1cc(C(C)C)c(S(=O)(=O)N/N=C2\CC3CCC2(C)C3(C)C)c(C(C)C)c1 (stereo unspecified),< 3.70,4.73,
COC(=O)c1cc(C(=O)OC)c(C/C(=N/Nc2ccc([N+](=O)[O-])cc2[N+](=O)[O-])C(=O)Nc2cccc(C(F)(F)F)c2)nc1C/C(=N/Nc1ccc([N+](=O)[O-])cc1[N+](=O)[O-])C(=O)Nc1cccc(C(F)(F)F)c1,< 3.70,4.15,
Cc1ccccc1Cn1nc2ccccc2cc1=O,< 3.42,< 3.42,
Cc1noc2c1CC(=O)c1ccccc1OC2,< 3.41,3.65,
Cc1cc(C)c(NS(=O)c2ccc(Cl)cc2)c(C)c1 (stereo unspecified),< 4.47,< 4.47,
Cc1nonc1NC(=O)OCc1ccccc1,< 3.95,< 3.95,
CC(=O)OCC1OC(n2c(=S)n(-c3ccccc3)c(=O)c3cc(Br)ccc32)C(OC(C)=O)C(OC(C)=O)C1OC(C)=O (stereo unspecified),< 4.97,< 4.97,
Cc1ccc(/C(O)=C/c2nc3ccccc3[nH]c2=O)c(C)c1,< 3.70,4.45,
OC/C=C/c1ccc(O)c(O)c1,,,inactive
O=c1[nH]c(=O)n(C2OC(CO)C(O)C2O)c(NNc2ccccc2)c1NNc1ccccc1 (stereo unspecified),3.84,< 3.70,
CCCCC(CC)CN(Cc1cc(CN(CC(CC)CCCC)CC(CC)CCCC)c(O)c(CN(CC(CC)CCCC)CC(CC)CCCC)c1)CC(CC)CCCC (stereo unspecified),< 3.70,4.46,
O=C(O)Cc1cccc2c1OC(c1ccccc1)C(Cl)(C(=O)c1ccccc1)C2=O (stereo unspecified),< 3.70,5.26,
C#C/C=C\CCCC/C=C\C#CC#CCCCC#CC#C[C@H](COS(=O)(=O)O)OS(=O)(=O)O,4.51,< 3.70,
COC(=O)C1C(OC(=O)C(Cl)(c2ccccc2)c2ccccc2)CC2CCC1N2C (stereo unspecified),< 3.70,< 3.70,

Compound,pEC50,pIC50,outcome
Cc1cc(S(=O)(=O)Nc2nc3ncccc3[nH]2)c(S)cc1Cl,4.48,< 3.70,
N#CCCSC1SC(=C2SC3=C(SCCS3)S2)SC1SCCC#N (stereo unspecified),< 3.70,< 3.70,
COC1CC(OC)C(O)C(CO)O1 (stereo unspecified),,,inactive
CC(=O)OC1CC[C@]2(C)C3CC[C@@]4(C)C(CCC4[C@H](C)CCCC(C)C)[C@@H]3CCC2(Br)C1 (stereo partly specified),,,inactive
O=C(O)CCCNS(=O)(=O)c1ccccc1,,,inactive
CNC(=O)NCCN1N=C(C)/C(=C\c2ccccc2)CC1=O,,,inactive
CC1(C)C(=O)CC[C@@]2(C)C1CC[C@]1(C)C2CC=C2[C@@H]3C[C@](C)(C(=O)O)CC[C@]3(C)CCC21C (stereo partly specified),< 3.70,4.02,
O=C1CCC(=O)c2ccccc2N1,< 2.99,< 2.99,
O=C(Nc1ccccc1)OCc1nc2c([nH]1)C(=O)C=CC2=O,,,inactive
CCOC(=O)CN1C(=O)c2c(c(C)n(-c3ccccc3)c2C)C1=O,< 3.70,< 3.70,
CCCCCCCC(=O)N1C2CC3CCC2(CS1(=O)=O)C3(C)C (stereo unspecified),< 3.70,4.72,
COc1cc2c(c(OC)c1OC)-c1cc3c(cc1C(=O)CC(C(=O)O)(C(=O)O)C2)OCO3,< 3.25,< 3.25,
COc1cc2c(cc1O)C1Cc3ccc(OC)c(O)c3C(C2)N1C (stereo unspecified),< 3.70,4.07,
C/C(=N\NC(=S)N(C)C)c1ccccn1,< 5.65,7.86,
COc1cc2ccc(=O)oc2c2c1OC(C)(C)[C@H](OC(=O)C13CCC(C)(C(=O)O1)C3(C)C)[C@@H]2OC(=O)C12CCC(C)(C(=O)O1)C2(C)C (stereo partly specified),< 3.70,< 3.70,
CNC(=S)N/N=C(\C(=N/NC(=S)NC)c1ccccn1)c1ccccn1,< 6.70,7.29,
C=C(C(=C)P(=S)(c1ccccc1)c1ccccc1)P(=S)(c1ccccc1)c1ccccc1,< 4.57,< 4.57,
CC(=O)c1sc(Nc2nnc(-c3ccc(-c4nnc(Nc5nc(C)c(C(C)=O)s5)o4)cc3)o2)nc1C,,,inactive
N#Cc1ccc(NC(=NCC(=O)O)Nc2ccc3ccccc3c2)cc1,,,inactive
C=CCNC(=S)NC=C(C(N)=O)C(N)=O,< 3.70,< 3.70,
C[Si](C)(C)O/C=C1\CCCCC1=O,< 3.70,< 3.70,

Compound,pEC50,pIC50,outcome
O=[N+]([O-])c1ccc(C2=NOC(c3ccccc3F)N2C23CC4CC(CC(C4)C2)C3)cc1 (stereo unspecified),3.71,< 3.70,
N#Cc1nc(CCN2C(=O)c3ccccc3C2=O)oc1N,< 3.70,< 3.70,
O=C(Nc1ccc(C(F)(F)F)cc1[N+](=O)[O-])C(=O)C1NC(=S)NC1=O (stereo unspecified),< 4.02,< 4.02,
Cn1cccnc1=O,< 3.70,< 3.70,
O=C(CC/C(C/C(=N/O)c1ccc(F)cc1)=N/O)N(Cc1ccccc1)Cc1ccccc1,< 3.95,< 3.95,
C=C1CN(S(=O)(=O)c2ccc(C)cc2)CCCN(CC(C)CC)CCCN(S(=O)(=O)c2ccc(C)cc2)C1 (stereo unspecified),< 4.23,5.59,
C[C@]12CC[C@H](O)CC1=CC[C@@H]1[C@@H]2CC[C@]2(C)C(=O)CC[C@@H]12,< 3.90,4.08,
CC(=O)Nc1ccc(/C=C/C(=O)c2sc(-c3nc(C)c(C(=O)/C=C/c4ccc(NC(C)=O)cc4)s3)nc2C)cc1,< 4.48,< 4.48,
O=C1C(=C2CCCC2)CC/C1=C1/SS/C(=C2/CCC(=C3CCCC3)C2=O)S1,< 3.70,3.92,
Cc1ccc(Cc2n[nH]c(=O)n2-c2ccccc2)cc1,,,inactive
CCCCCCCCCCCCSSSCCCCCCCCCCCC,< 3.70,< 3.70,
CSc1sc(C)cc1-c1nsc(=O)o1,< 3.70,< 3.70,
COC(=O)C(=O)C(C(=O)OC)C(=O)C(=O)Nc1ccccc1C(N)=O (stereo unspecified),< 4.13,< 4.13,
Nc1ccc(N=Nc2ccccc2)c(N)n1,< 3.70,4.49,
Cc1ccc(C)c(C2=C/C(=C/c3ccc(N(CCC#N)CCC#N)cc3)C(=O)O2)c1,< 5.02,< 5.02,
CC1OC(O[C@H]2C3C=CO[C@@H](OC4OC(CO)C(O)C(O)C4O)C3[C@@]3(COC(=O)/C=C/c4ccc(O)cc4)O[C@@H]23)C(O)C(O)C1O (stereo partly specified),< 3.70,< 3.70,
CCOC(=O)CSc1nc(-c2ccc(Cl)cc2)c(C#N)c(=O)[nH]1,< 3.70,4.03,
COc1ccc(N2C(=O)C(=O)C3(CCCCC3)C2=O)c(OC)c1OC,< 3.70,< 3.70,
CC1Cn2c(Cc3ccccc3)nnc2S1 (stereo unspecified),,,inactive
ClCCCc1ccccc1C1=NCCc2ccccc21,< 3.70,5.28,
